Laboratory results reported in patent US20210172934A1, “SINGLE CELL CLONING APPROACHES FOR BIOLOGICAL STUDIES” (priority 2018, published 2021).

How the values were obtained:
Met-1 cells = experiment: In vitro chemosensitivity study (CellTiter-Glo, ATP as surrogate for viability); type: cell-based, murine; settings: 72 hours incubation; ATP levels (CellTiter-Glo)
Description: (§1) 4,000 Met-1 cells were plated in quadruplicates in 96-well plates containing growth media. The next day, vehicle (PBS) or chemotherapy (doxorubicin: 0.33 nM-2.2 ∝M; paclitaxel: 14 μM-160 μM) was added to the plate and incubated for 72 hours. ATP levels were quantified as a surrogate measure for viability (CellTiter-Glo, Promega) using a luminometer (Perkin-Elmer).
We next tested responsiveness of Met-1 mammary carcinoma to combination doxorubicin (A), cyclophosphamide (C), and paclitaxel (T) chemotherapy, AC-T, a standard of care chemotherapy regimen for breast cancer patients with ER-negative disease. We first tested the sensitivity of Met-1 cells to doxorubicin and paclitaxel in vitro and performed an initial in vivo experiment to identify a therapeutically relevant, well-tolerated combinatorial dose.

[1] = system: MT-2 WT and KO cell lines; experiment: In vitro sensitivity of MT-2 WT and KO cell lines to chemotherapy; type: cell-based, murine
Description: as §1, with “Met-1” left out

Compound | viability of Met-1 cells in vitro (Met-1 cells) | (enhanced) sensitivity of MT-2 KO versus WT in vitro [1]
COc1cccc2c1C(=O)c1c(O)c3c(c(O)c1C2=O)C[C@@](O)(C(=O)CO)C[C@@H]3O[C@H]1C[C@H](N)[C@H](O)[C@H](C)O1 [doxorubicin, Doxorubicin] | significantly decreased viability | not apparent
CC(=O)O[C@H]1C(=O)[C@@]2(C)[C@H]([C@H](OC(=O)c3ccccc3)[C@]3(O)C[C@H](OC(=O)[C@H](O)[C@@H](NC(=O)c4ccccc4)c4ccccc4)C(C)=C1C3(C)C)[C@]1(OC(C)=O)CO[C@@H]1C[C@@H]2O [paclitaxel] | significantly decreased viability | not apparent
